Reference: patent US4000269A, “S-(α-substituted-arylmethylthio, -arylmethylsulfinyl, and -arylmethylsulfonyl)methyl phosphorus esters used as insecticides” (priority 1975, dated 1976)

What was measured:
Format in all cases: in vivo
[1] = tested on: Western Potato Leafhopper (Empoasca abrupta); assay: G. Western Potato Leafhopper plant-dip test; conditions: 48 h, 2 days, read-out: Percent Mortality, Western Potato Leafhopper
Experimental: Sieva lima bean plants with the primary leaf expanded to 3 to 4 inches are dipped into 100 or 10 ppm. 50 % acetone/50 % water solutions and set in the hood to dry. A 1 -inch piece of the tip of a treated leaf is cut off and placed in a 4 -inch petri dish with a moist filter paper in the bottom. From 3 to 10 second-instar nymphs are tapped from the culture plants into the test dish and rapidly covered. Mortality counts are made after 2 days at 80° F., and 50 % R.H.

[2] = tested on: Tarnished Plant Bug (Lygus lineolaris); assay: A. Tarnished Plant Bug leaf-dip test; conditions: 48 h, 100 ppm., 2 days, read-out: Percent Mortality, Tarnished plant Bug
Experimental: (§1) Test compounds are prepared as 1000 ppm. solutions in 10 % acetone, 0.2 % Alrodyne 315 , and 89.8 % water. A tenfold dilution is made with 65 % acetone and 35 % water. The primary leaves of Sieva lima bean plants are dipped for 3 to 5 seconds in the test solutions and placed in an exhaust hood to dry. When dry, each leaf is placed in a 4 -inch petri dish with a moist filter paper on the bottom. Ten adult Lygus bugs are aspirated from the stock culture and placed in the petri dish. The dishes are covered and held at 80° F. and 50 % R.H. After 2 days, mortality counts are made.

[3] = tested on: Mexican Bean Beetle (Epilachna varivestis); assay: F. Mexican Bean Beetle leaf-dip test; conditions: 48 h, 2 days, read-out: Percent Mortality, Mexican Bean Beetle
Experimental: Compounds to be tested are made up as 100 or 10 ppm. solutions in 65 % acetone/35 % water. Sieva lima bean leaves are dipped in the test solution and set in the hood to dry. When dry, they are placed in 4 -inch petri dishes which have a moist filter paper in the bottom, and 10 third-instar bean beetles are added to each dish. The dishes are covered and held at 80° F., 60 % R.H. After 2 days, mortality counts and estimates of the amount of feeding are made. Compounds showing kills greater than 75 % are further tested at tenfold dilutions in 65 % acetone/35 % water.

[4] = tested on: Southern Armyworm (Prodenia eridania); assay: D. Southern Armyworm leaf-dip test; conditions: Spodoptera eridania, 48 h, 2 days, read-out: Percent Mortality, Southern Armyworm
Experimental: Compounds are tested at 1000 and 100 ppm. in solution or suspension in 65 % acetone/35 % water. Sieva lima bean primary leaves are dipped for 3 seconds in the test solution and set in a hood on a screen to dry. When dry, each leaf is placed in a 4 -inch petri dish which has a moist filter paper in the bottom and ten third-instar armyworm larvae about 3/8 inch long. The dishes are covered and held at 80° F., and 60 % R.H. After 2 days, mortality counts and estimates of the amount of feeding are made. Compounds showing partial kill and/or inhibition of feeding are held an extra day for further observations.

[5] = tested on: Boll Weevil (Anthonomus grandis); assay: B. Boll Weevil leaf-dip test; conditions: 48 h, 100 ppm., 2 days, read-out: Percent Mortality, Boll Weevil
Experimental: as §1, with “The first or second true leaf” for “The primary leaves”, “of young cotton” for “of Sieva lima bean”, “plants is” for “plants are”, “test solution” for “test solutions”, “adult boll weevils” for “adult Lygus bugs”, “are removed” for “are aspirated”

[6] = tested on: Bean Aphid (Aphis fabae); assay: C. Bean Aphid spray test; conditions: 48 h, 2 days, read-out: Percent Mortality, Bean Aphid
Experimental: Compounds are tested at 100 , 10 and 1 ppm. in solution or suspension in 65 % acetone/35 % water. Two-inch fiber pots each containing a nasturtium plant 2 inches high and infested with about 150 aphids 2 days earlier, are placed on a turntable (4 RPM) and sprayed for two revolutions with a No. 154 DeVilbiss Atomizer at 20 psi. air pressure. The spray tip is held about 6 inches from the plants, and the spray is directed so as to give complete coverage of the aphids and the plants. The sprayed plants are laid on their sides on white enamel trays. Mortality estimates are made after holding for 2 days at 70° F. and 50% R.H.

[7] = tested on: Two-spotted Spider Mite (Tetranychus urticae); assay: E. Two-spotted Spider Mite plant-dip test; conditions: 48 h, read-out: Percent Mortality, Two-spotted Spider Mite; for mortality at 100 ppm: 2 days
Experimental: Sieva lima bean plants with primary leaves 3 to 4 inches long are infested with about 100 adult mites per leaf 4 hours before use in this test. The mite and egg infested plants are dipped for 3 seconds in the same solutions used in the aphid test, and the plants set in the hood to dry. They are held for 2 days at 80° F., 60% R.H., and the adult mite mortality estimated on one leaf under a steroscopic microscope. The other leaf is left on the plant an additional 5 days and then examined at 10 X power to estimate the kill of eggs and of newly hatched nymphs, giving a measure of ovicidal and residual action, respectively.

[8] = tested on: Malaria Mosquito (Anopheles quadrimaculatus); assay: H. Malaria Mosquito Adult Test; conditions: 24 h, adults, 1 day, read-out: Percent Mortality, Malaria Mosquito
Experimental: Solutions of 65% acetone/35% water containing 10 ppm. of test compound are poured into wide-mouth 2-ounce jars, each containing a microscope slide. The slides are removed from the test solution with forceps and laid horizontally to dry on a wide-mouth 4-ounce bottle. When dry, they are placed in the same 4-ounce bottle and 10 4- to 5-day-old mosquitoes of mixed sexes are added to each bottle. A piece of cotton gauze held on by an elastic band serves as a lid, and wad of cotton soaked in 10% honey solution serves as food. Mortality counts are made after 1 day at 80° F., 50% R.H. (relative humidity) Data obtained with the above procedures are reported in Table II below.

[9] = tested on: Southern corn rootworm larvae (Diabrotica undecimpunctata); assay: Southern Corn Rootworm Control (treated soil, dust on talc); conditions: 144 h, potting soil, mortality after 6 days, read-out: Percent Control of Southern Corn Rootworm Larvae; for mortality at 1120.85 g/ha: 1 lbs./Acre; for mortality at 11208.5 g/ha: 10 lbs./Acre; for mortality at 56042.5 g/ha: 50 lbs./Acre
Experimental: Compounds are prepared as dusts on talc. The compounds are dissolved in acetone, and appropriate rates obtained by serial dilution. One and one-quarter milliliters of solution is pipetted onto a standard volume of dust in 1 -ounce jars, and the acetone allowed to evaporate. Twenty-five milliliters of moist soil and about 200 millet seeds are placed in the jar, capped and the contents thoroughly mixed. Ten second-instar larvae of the Southern corn rootworm (Diabrotica undecimpunctata ) are then placed in each jar. Mortality counts are made after 6 days and percent mortality determined.

| SMILES | mortality at 10 ppm [1] [%] | mortality at 100 ppm [1] [%] | mortality at 100 ppm [2] [%] | mortality at 10 ppm [3] [%] | mortality at 100 ppm [3] [%] | mortality at 100 ppm [4] [%] | mortality at 1000 ppm [4] [%] | mortality at 100 ppm [5] [%] | mortality at 1 ppm [6] [%] | mortality at 10 ppm [6] [%] | mortality at 100 ppm [6] [%] | mortality at 100 ppm [7] [%] | mortality at 300 ppm [7] [%] | mortality at 10 ppm [8] [%] | mortality at 1120.85 g/ha [9] [%] | mortality at 11208.5 g/ha [9] [%] | mortality at 56042.5 g/ha [9] [%] |
| --- | --- | --- | --- | --- | --- | --- | --- | --- | --- | --- | --- | --- | --- | --- | --- | --- | --- |
| CCCSP(=O)(OCC)SCSC(C)(C)c1ccccc1 (stereo not drawn) [drawing 16] | 0 | 100 | 0 | 80 | 80 | 100 | 100 | 0 | 90 | 100 | 100 | 100 | 100 | 0 |  |  |  |
| COP(=S)(OC)SCSC(C)(C)c1ccc(Cl)cc1 [drawing 22] | 0 | 100 | 0 | 0 | 50 | 100 | 100 | 100 | 100 | 100 | 100 | 100 | 100 | 100 |  |  |  |
| CCOP(=S)(OCC)SCSC(C)c1ccccc1 (stereo not drawn) [drawing 7] | 100 | 100 | 70 | 0 | 100 | 30 | 100 | 0 | 100 | 100 | 100 | 0 | 100 | 100 |  |  |  |
| COP(=S)(OC)SCSC(C)(C)c1ccc(Br)cc1 [drawing 19] | 0 | 100 | 40 | 0 |  | 100 | 100 | 100 | 100 | 100 | 100 | 100 | 100 | 75 |  |  |  |
| CCOP(=S)(OCC)SCSC(C)(C)c1cccc(C)c1 [Example 14, S-(m,α,α-Trimethylbenzylthio)methyl O,O-Diethyl Phosphorodithioate] |  |  |  |  |  |  |  |  |  |  |  |  |  |  | 100 | 100 | 100 |
| COP(=S)(OC)SCSC(C)(C)c1ccccc1 [drawing 13] | 100 | 100 | 90 | 80 | 80 | 100 | 100 | 100 | 80 | 100 | 100 | 100 | 100 |  |  |  |  |
| COP(=S)(OC)SCSC(C)(C)c1cc(Cl)ccc1Cl [drawing 10] | 40 | 100 | 60 |  |  | 100 | 100 | 90 | 50 | 100 | 100 | 100 | 100 | 70 |  |  |  |
| CCOP(=S)(OCC)SCSC(C)(CC)c1ccccc1 (stereo not drawn) [Example 21, S-(α-Ethyl-α-methylbenzylthio)methyl O,O-Diethyl Phosphorodithioate] |  |  |  |  |  |  |  |  |  |  |  |  |  |  | 0 | 100 | 100 |
| COP(=S)(OC)SCSC(C)(C)c1ccc(C#N)cc1 [Example 24, S-(p-Cyano-α,α-dimethylbenzylthio)methyl O,O-Dimethyl Phosphorodithioate] |  |  |  |  |  |  |  |  |  |  |  |  |  |  | 0 | 100 | 100 |
| CCOP(=S)(OCC)SCSC(C)(C)c1cccc(C)c1 [drawing 17] |  | 0 | 0 |  |  | 20 | 100 |  | 0 | 100 | 100 |  | 0 | 0 |  |  |  |
| CCOP(=S)(OCC)SCSC(CC)(CC)c1ccccc1 [Example 22, S-(α,α-Diethylbenzylthio)methyl O,O-Diethyl Phosphorodithioate] |  |  |  |  |  |  |  |  |  |  |  |  |  |  | 50 | 100 | 100 |
| CCOP(=S)(OCC)SC[S+]([O-])C(C)(C)c1ccccc1 (stereo not drawn) [drawing 8] | 100 | 100 | 0 | 40 | 100 | 80 | 100 | 100 | 100 | 100 | 100 | 100 | 100 |  |  |  |  |
| CCOP(=S)(OCC)SCSC(C)(C)c1cc(Cl)ccc1Cl [Example 10, S-(2,5-Dichloro-α,α-dimethylbenzylthio)-methyl O,O-Diethyl Phosphorodithioate] |  |  |  |  |  |  |  |  |  |  |  |  |  |  | 0 | 100 | 100 |
